“And” between values parts separate entries of the source, which are not always exact repeats. Equal entries are not always repeated.
How the values were obtained:
[1] = target: T1, human recombinant P2X7 receptors (Homo sapiens, UniProt Q99572); assay: Ethidium Accumulation Assay; assay type: cell-based; conditions: blocking ATP (1 mM) responses; HEK293 cells expressing human P2X7; read-out: pIC50 in the Ethidium Accumulation Assay (or a slightly modified version thereof), human P2X7 receptor antagonist activity (converted)
T1 construct: expressed in transfected cells
T1 sequence (Q99572 1-595): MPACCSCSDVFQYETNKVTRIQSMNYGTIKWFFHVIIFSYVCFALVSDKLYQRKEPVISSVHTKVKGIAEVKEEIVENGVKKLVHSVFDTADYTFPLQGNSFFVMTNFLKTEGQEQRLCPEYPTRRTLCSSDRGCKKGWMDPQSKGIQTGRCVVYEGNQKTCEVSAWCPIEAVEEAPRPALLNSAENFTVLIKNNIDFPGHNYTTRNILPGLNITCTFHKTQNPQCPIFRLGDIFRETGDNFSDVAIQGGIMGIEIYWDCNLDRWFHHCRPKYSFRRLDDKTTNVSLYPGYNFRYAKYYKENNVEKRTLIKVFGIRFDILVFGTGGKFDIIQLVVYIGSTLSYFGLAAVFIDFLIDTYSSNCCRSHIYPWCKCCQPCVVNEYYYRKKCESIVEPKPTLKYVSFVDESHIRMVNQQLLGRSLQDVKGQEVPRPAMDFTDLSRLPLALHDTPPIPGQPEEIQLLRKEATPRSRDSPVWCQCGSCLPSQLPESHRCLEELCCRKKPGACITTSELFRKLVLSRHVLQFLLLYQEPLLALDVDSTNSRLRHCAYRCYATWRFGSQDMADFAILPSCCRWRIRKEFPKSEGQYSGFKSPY
Protocol: Studies were performed using NaCl assay buffer of the following composition: 140 mM NaCl, 10 mM HEPES [4-(2-hydroxyethyl)-1-piperazine-1-ethanesulfonic acid], 5 mM N-methyl-D-glucamine, 5.6 mM KCl, 10 mM D-glucose, 0.5 mM CaCl2 (pH 7.4).
Human Embryonic Kidney (HEK) 293 cells, stably expressing human recombinant P2X7 receptors, were grown in poly-D-lysine pretreated 96 well plates for 18-24 hours. (The cloning of the human P2X7 receptor is described in U.S. Pat. No. 6,133,434, e.g. see Example 3 therein). The cells were washed twice with 350 μl of the assay buffer, before addition of 50 μl of the assay buffer containing the putative P2X7 receptor antagonist compound. (A small amount of dimethyl sulfoxide, for initially dissolving the compound, is optionally used and present in this 50 μl test compound sample.) The cells were then incubated at room temperature (19-21° C.) for 30 min before addition of ATP and ethidium (100 μM final assay concentration). The ATP concentration was chosen to be close to the EC80 for the receptor type and was 1 mM for studies on the human P2X7 receptor. Incubations were continued for 8 or 16 min and were terminated by addition of 25 μl of 1.3M sucrose containing 4 mM of the P2X7 receptor antagonist Reactive Black 5 (Aldrich). Cellular accumulation of ethidium was determined by measuring fluorescence (excitation wavelength of 530 nm and emission wavelength of 620 nm) from below the plate with a Canberra Packard Fluorocount (14 Station Road, Pangbourne, Reading, Berkshire RG8 7AN, United Kingdom) or a FlexStation II 384 from Molecular Molecular Devices (660-665 Eskdale Road, Wokingham, Berkshire RG41 5TS, United Kingdom). Antagonist pIC50 values for blocking ATP responses were determined using iterative curve fitting techniques.

[2] = target: T1, human recombinant P2X7 receptors; assay: Fluorescent Imaging Plate Reader (FLIPR) Ca Assay; assay type: cell-based; conditions: blocking BzATP (60 μM) responses; HEK293 or U-2OS cells expressing human P2X7; read-out: pIC50 in the FLIPR Ca Assay (or a slightly modified version thereof), human P2X7 receptor antagonist activity (converted)
Protocol: Studies were performed using NaCl assay buffer of the following composition for human P2X7: 137 mM NaCl; 20 mM HEPES [4-(2-hydroxyethyl)-1-piperazine-1-ethanesulfonic acid]; 5.37 mM KCl; 4.17 mM NaHCO3; 1 mM CaCl2; 0.5 mM MgSO4; and 1 g/L of D-glucose (pH 7.4).
Human Embryonic Kidney (HEK) 293 cells, stably expressing human recombinant P2X7 receptors, were grown in poly-D-lysine pretreated 384 well plates for 24 hours at […] (for a time sufficient for growth of a homogeneous layer of cells at the bottom of the wells). Alternatively, human osteosarcoma (U-20S) cells (commercially available), transduced with modified Baculovirus (BacMam) vector to deliver the gene coding for human P2X7 receptor (i.e. transiently expressing human recombinant P2X7 receptors), were grown in substantially the same conditions as for the HEK293 cells except that the well plates were not pre-treated with poly-D-lysine. (The cloning of the human P2X7 receptor is described in U.S. Pat. No. 6,133,434, e.g. see Example 3 therein). The cells were washed three times with 80 μl of assay buffer, loaded for 1 h at 37° C. with 2 μM Fluo-4-AM [4-(6-acetoxymethoxy-2,7-difluoro-3-oxo-9-xanthenyl)-4′-methyl-2,2′-(ethylenedioxy)dianiline-N,N,N′,N′-tetraacetic acid tetrakis(acetoxymethyl) ester], a Ca^2+-sensitive, cell-permeable, fluorescent dye (Tef Labs. Inc., 9415 Capitol View Drive, Austin, Tex. 78747, USA), washed three times again (3×80 μl), and left with 30 μl buffer before the addition of 10 μl of the assay buffer containing the putative P2X7 receptor antagonist compound, the compound being added at 4× the final assay concentration chosen. The solution of the putative P2X7 receptor antagonist compound was created by (i) dissolving the compound in dimethyl sulfoxide (DMSO) to create a stock solution in DMSO at 200× the final assay concentration, and (ii) mixing 1 μl of the stock solution of the compound in DMSO with 50 μl of the assay buffer to create a solution at about 4× the final assay concentration. The cells were then incubated at room temperature for 30 mins before addition (online, by FLIPR384 or FLIPR3 instrument (Molecular Devices, 1311 Orleans Drive, Sunnyvale, Calif. 94089-1136, USA)) of benzoylbenzoyl-ATP (BzATP) such as to create a 60 μM final assay concentration of BzATP (BzATP was added at 5× this final concentration). The BzATP concentration was chosen to be close to the EC80 for the receptor type. Incubations and reading were continued for 90 sec, and intracellular calcium increase was determined by measuring fluorescence (excitation wavelength of 488 nm and emission wavelength of 516 nm) from below the plate, with FLIPR charged-coupled device (CCD) camera. Antagonist pIC50 values for blocking BzATP responses were determined using iterative curve fitting techniques.

IC50 [1] | IC50 [2] [nM] | SMILES
< 3160 nM and 31.6 to 316 nM | ≤ 20000 | O=C(NCc1cccc(C(F)(F)F)c1Cl)C1CC(=O)N(Cc2ccccc2)C1 (centres unmarked) [Example 11, N-{[2-chloro-3-(trifluoromethyl)phenyl]methyl}-5-oxo-1-(phenylmethyl)-3-pyrrolidinecarboxamide]
< 3160 nM and 31.6 to 316 nM | ≤ 20000 | CC(C)CN1CC(C(=O)NCc2cccc(C(F)(F)F)c2Cl)CC1=O (centres unmarked) [Example 9, N-{[2-chloro-3-(trifluoromethyl)phenyl]methyl}-1-(2-methylpropyl)-5-oxo-3-pyrrolidinecarboxamide]
< 3160 nM and 31.6 to 316 nM | ≤ 20000 | CC(C)CN1CC(C(=O)NCc2ccc(Cl)cc2Cl)CC1=O (centres unmarked) [Example 10, N-[(2,4-dichlorophenyl)methyl]-1-(2-methylpropyl)-5-oxo-3-pyrrolidinecarboxamide]
< 3160 nM and 31.6 to 316 nM | ≤ 20000 | O=C(NCc1ccc(Cl)cc1Cl)C1CC(=O)N(Cc2ccccc2)C1 (centres unmarked) [Example 12, N-[(2,4-dichlorophenyl)methyl]-5-oxo-1-(phenylmethyl)-3-pyrrolidinecarboxamide]
< 3160 nM and 31.6 to 316 nM | ≤ 20000 | CCN1CC(C(=O)NCc2cccc(C(F)(F)F)c2Cl)CC1=O (centres unmarked) [Example 8, N-{[2-chloro-3-(trifluoromethyl)phenyl]methyl}-1-ethyl-5-oxo-3-pyrrolidinecarboxamide]

More lines, now with the values behind:

SMILES | IC50 [1] | IC50 [2] [nM]
C[C@H](c1ccccc1)N1CC(C(=O)NCc2ccc(F)cc2Cl)CC1=O (stereo partly drawn) [Example 1, N-[(2-chloro-4-fluorophenyl)methyl]-5-oxo-1-[(1R)-1-phenylethyl]-3-pyrrolidinecarboxamide] | < 3160 nM | ≤ 20000
O=C(NCc1ccc(F)cc1Cl)C1CC(=O)N(C2CC2)C1 (centres unmarked) [Example 2, N-[(2-Chloro-4-fluorophenyl)methyl]-1-cyclopropyl-5-oxo-3-pyrrolidinecarboxamide] | < 3160 nM | ≤ 20000
CN1CC(C(=O)NCc2cccc(C(F)(F)F)c2Cl)CC1=O (single isomer, unassigned) [5A stereoisomer 2] | 39.8 to 50.1 nM | –
CN1CC(C(=O)NCc2cccc(C(F)(F)F)c2Cl)CC1=O (centres unmarked) [Example 5, N-{[2-chloro-3-(trifluoromethyl)phenyl]methyl}-1-methyl-5-oxo-3-pyrrolidinecarboxamide] | < 3160 nM and 31.6 to 316 nM and 50.1 to 63.1 nM | ≤ 20000
CN1CC(C(=O)NCc2cccc(C(F)(F)F)c2Cl)CC1=O (single isomer, unassigned) [5A stereoisomer 1] | 158 to 200 nM | –
O=C(NCc1ccc(Cl)cc1Cl)C1CC(=O)N(C2CC2)C1 (centres unmarked) [Example 3, 1-Cyclopropyl-N-[(2,4-dichlorophenyl)methyl]-5-oxo-3-pyrrolidinecarboxamide] | < 3160 nM and 31.6 to 316 nM | ≤ 20000
CN1CC(C(=O)NCc2ccc(Cl)cc2Cl)CC1=O (centres unmarked) [Example 6, N-[(2,4-dichlorophenyl)methyl]-1-methyl-5-oxo-3-pyrrolidinecarboxamide] | < 3160 nM and 31.6 to 316 nM | ≤ 20000
CCN1CC(C(=O)NCc2ccc(Cl)cc2Cl)CC1=O (centres unmarked) [Example 7, N-[(2,4-dichlorophenyl)methyl]-1-ethyl-5-oxo-3-pyrrolidinecarboxamide] | < 3160 nM and 31.6 to 316 nM | ≤ 20000
O=C(NCc1cccc(C(F)(F)F)c1Cl)C1CC(=O)N(C2CC2)C1 (centres unmarked) [Example 4, N-{[2-chloro-3-(trifluoromethyl)phenyl]methyl}-1-cyclopropyl-5-oxo-3-pyrrolidinecarboxamide] | < 3160 nM and 31.6 to 316 nM | ≤ 20000
